Assay results published in patent US20050014834A1, “Selective anesthetic agents and methods of identifying the same” (priority 2001, published 2005).

Key:
[1] = system: β2N289S knock-in and wildtype mice; test: Loss of righting reflex (LORR) as behavioural measure of anesthesia; assay type: in vivo, mouse
Method: Loss of righting reflex (LORR) was used as a crude behavioural measure of anesthesia. Mice (n=11 wildtype, n=10 knock-in for each dose) were dosed intraperitoneally (i.p.) with 20, 30 or 40 mg/kg etomidate. Each mouse was placed in a separate cage and tested for LORR by gently rolling the mouse on it back. When the righting reflex had disappeared (usually around 90 seconds) the mouse was laid on it back on a piece of corrugated plastic and the time until righting reflex was regained was recorded. In order to avoid excessive heat loss during anesthesia a heat lamp was placed above the mice. To control for non-specific changes in anesthetic sensitivity induced by the mutation two different classes of anesthetics were also tested in this model: pentobarbitone, 50 mg/kg i.p. (n=11) and midazolam, 80 mg/kg i.p. (n=5).

[2] = system: GABAA receptors; details: cited from earlier work; for potentiation of the action of GABA: native and all recombinant GABAA receptors studied to date
[3] = system: β2N289S knock-in and wildtype mice; test: Post-anaesthetic slow wave sleep by EEG (hypnotic hangover); assay type: in vivo, mouse; details: 12.5 mg/kg intravenous, FIG. 5
Method: In order to quantify the amount of post-anaesthetic sleep, wildtype (n=4) and knock-in (n=4) mice were implanted with radiotelemetry transmitters for the measurement of electroencephalographic (EEG) data. Mice were allowed to recover from the surgical procedure for 13 days before experiment. Baseline EEG data was recorded on day 1 of the experimental protocol. On the 2nd experimental day, mice were dosed with 12.5 mg/kg etomidate by the intravenous route and EEG data was continuously sampled. EEG data sampled at 250 Hz (transmitter bandwidth 0.5-100 Hz, low pass data filter 70 Hz). Data analysed using Somnologica 3 in 8 sec epochs and scored for either “wake” or “slow wave sleep” according to standard electrophysiological criteria (van Gool, W. A. & Mirmiran, M., Sleep, 9, 335 (1986)). Following recovery from etomidate anaesthesia, the amount of slow wave sleep was expressed as percentage of the circadian timed matched baseline.

[4] = target: GABAA receptor β3 subunit N289S (Homo sapiens, UniProt P28472+Q16445, N290S); details: asparagine 289 of β3 to serine; cited from earlier work
GABAA receptor β3 subunit N289S, sequence (P28472 26-473 N290S, one chain of several): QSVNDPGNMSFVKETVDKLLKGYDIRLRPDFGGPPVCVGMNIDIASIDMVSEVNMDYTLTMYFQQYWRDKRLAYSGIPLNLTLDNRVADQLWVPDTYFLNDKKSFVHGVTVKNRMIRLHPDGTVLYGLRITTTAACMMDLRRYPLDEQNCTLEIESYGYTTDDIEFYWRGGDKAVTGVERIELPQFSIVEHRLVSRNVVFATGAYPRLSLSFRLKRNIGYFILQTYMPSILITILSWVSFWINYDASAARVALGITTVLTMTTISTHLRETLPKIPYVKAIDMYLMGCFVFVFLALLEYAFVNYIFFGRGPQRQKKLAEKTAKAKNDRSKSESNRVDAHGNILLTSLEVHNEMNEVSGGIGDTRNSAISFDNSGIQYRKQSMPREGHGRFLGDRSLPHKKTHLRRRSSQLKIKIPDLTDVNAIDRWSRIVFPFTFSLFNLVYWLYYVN
GABAA receptor β3 subunit N289S, sequence (Q16445 20-453, one chain of several): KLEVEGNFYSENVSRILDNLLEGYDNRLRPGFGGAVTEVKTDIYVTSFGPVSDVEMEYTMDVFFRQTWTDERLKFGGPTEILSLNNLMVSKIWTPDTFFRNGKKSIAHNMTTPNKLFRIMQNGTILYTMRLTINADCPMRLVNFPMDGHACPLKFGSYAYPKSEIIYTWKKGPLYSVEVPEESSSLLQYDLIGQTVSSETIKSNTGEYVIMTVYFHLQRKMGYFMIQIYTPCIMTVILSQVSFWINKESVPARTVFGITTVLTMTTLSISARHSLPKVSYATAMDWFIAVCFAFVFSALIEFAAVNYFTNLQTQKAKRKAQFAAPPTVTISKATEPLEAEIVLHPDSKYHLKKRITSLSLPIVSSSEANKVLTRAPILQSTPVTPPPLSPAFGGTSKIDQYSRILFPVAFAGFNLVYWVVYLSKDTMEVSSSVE

[5] = target: T1, human GABAA receptor β2 subunit (position 289 mutant) (Homo sapiens, UniProt P14867+P47870, N289S); details: recombinant receptors expressed in cell lines; cited from earlier work
T1 construct: expressed in transfected cells
T1 sequence (P47870 25-512 N289S limits assumed): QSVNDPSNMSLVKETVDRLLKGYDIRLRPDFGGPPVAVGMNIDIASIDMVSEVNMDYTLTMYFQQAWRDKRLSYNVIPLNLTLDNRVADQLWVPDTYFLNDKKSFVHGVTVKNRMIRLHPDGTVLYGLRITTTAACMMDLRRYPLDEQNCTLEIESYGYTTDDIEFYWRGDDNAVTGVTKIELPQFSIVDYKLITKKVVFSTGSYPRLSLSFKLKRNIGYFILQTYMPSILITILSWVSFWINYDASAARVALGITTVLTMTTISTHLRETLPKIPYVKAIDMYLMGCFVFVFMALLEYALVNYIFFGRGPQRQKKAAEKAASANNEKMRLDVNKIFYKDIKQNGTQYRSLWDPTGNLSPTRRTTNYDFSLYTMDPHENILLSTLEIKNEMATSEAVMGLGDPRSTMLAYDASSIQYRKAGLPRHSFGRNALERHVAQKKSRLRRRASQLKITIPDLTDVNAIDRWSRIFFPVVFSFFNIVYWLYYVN
T1 sequence (P14867 28-456): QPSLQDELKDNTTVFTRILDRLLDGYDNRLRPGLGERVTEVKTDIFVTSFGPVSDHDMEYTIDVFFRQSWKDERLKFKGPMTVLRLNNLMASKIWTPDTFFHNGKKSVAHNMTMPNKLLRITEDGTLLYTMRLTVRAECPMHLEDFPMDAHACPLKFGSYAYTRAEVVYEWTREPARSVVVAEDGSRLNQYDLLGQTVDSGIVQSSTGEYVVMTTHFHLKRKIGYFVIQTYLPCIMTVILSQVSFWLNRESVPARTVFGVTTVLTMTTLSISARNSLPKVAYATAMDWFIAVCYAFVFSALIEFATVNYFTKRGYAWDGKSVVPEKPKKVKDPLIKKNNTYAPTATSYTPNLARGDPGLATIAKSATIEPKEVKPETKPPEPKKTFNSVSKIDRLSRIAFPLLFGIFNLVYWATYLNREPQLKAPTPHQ
T1 sequence (P18507 40-467 partner limits assumed): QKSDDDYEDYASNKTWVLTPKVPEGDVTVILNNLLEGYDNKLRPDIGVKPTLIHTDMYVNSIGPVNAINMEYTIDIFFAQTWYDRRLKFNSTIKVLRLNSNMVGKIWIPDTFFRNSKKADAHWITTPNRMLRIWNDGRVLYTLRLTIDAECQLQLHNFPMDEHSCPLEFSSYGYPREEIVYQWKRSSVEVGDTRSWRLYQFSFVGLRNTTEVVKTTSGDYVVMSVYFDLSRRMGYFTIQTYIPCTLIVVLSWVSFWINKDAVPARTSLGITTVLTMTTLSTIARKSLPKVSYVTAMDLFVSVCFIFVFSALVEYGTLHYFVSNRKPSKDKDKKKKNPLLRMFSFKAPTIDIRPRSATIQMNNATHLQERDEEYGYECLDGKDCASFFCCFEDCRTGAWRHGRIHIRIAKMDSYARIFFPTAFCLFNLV

[6] = system: β2N289S knock-in and wildtype mice; test: Rotarod test of motor co-ordination: recovery following etomidate anesthesia; assay type: in vivo, mouse; details: for time mice could stay on rotarod: 90 minutes after testing began, rod 16 rpm, 120 second trial
Method: Wildtype (n=30) and knock-in (n=30) mice were trained to perform the rotarod test of motor co-ordination. Mice were placed on a rod revolving at 16 rpm and the time taken for them to fall off recorded. Each mouse was given successive training trials until it could remain on the rod for 3 consecutive trials of 120 second duration. Mice were then split into 3 groups (n=10 for each genotype) and dosed i.p. with 15, 20 or 30 mg/kg etomidate. Mice were then placed back on the rotarod every 10 minutes (for 90 minutes), starting from the mean time for recovery of righting reflex for a given dose (obtained from experiment 1). In this way the rate of recovery of the ability to perform a motor task could be assessed.

[7] = system: β2N289S knock-in and wildtype mice; test: Level of anaesthesia by electroencephalography (EEG burst suppression); assay type: in vivo, mouse; details: 12.5 mg/kg intravenous; FIG. 4
Method: In order to compare the depth of anaesthesia in both genotypes, wildtype (n=4) and knock-in (n=4) mice were implanted with radiotelemetry transmitters for the measurement of electroencephalographic (EEG) data. Mice were allowed to recover from the surgical procedure for 14-21 days before experiment. Mice were dosed with 12.5 mg/kg etomidate by the intravenous route and EEG data was continuously sampled. Data sampled at 250 Hz (transmitter bandwidth 0.5-100 Hz, low pass data filter 70 Hz). Data analysed using Somnologica 3 in 100 mSec epochs for % suppression activity per minute. Isoelectric window defined as waveform amplitude less than 5 μV (typical peak to peak amplitude ˜250 μV).

CCCC(C)C1(CC)C(=O)NC(=O)NC1=O (stereo not drawn) [pentobarbitone]
duration of LORR, knock-in versus wildtype mice ([1]; pentobarbitone 50 mg/kg i.p., F1,28=0.61, p=0.44): no significant difference

CC(C)c1cccc(C(C)C)c1O [propofol]
potentiation of the action of GABA [2]: markedly potentiate the action of GABA

Cc1ncc2n1-c1ccc(Cl)cc1C(c1ccccc1F)=NC2 [midazolam]
duration of LORR, knock-in versus wildtype mice ([1]; midazolam 80 mg/kg i.p., F1,28=0.61, p=0.44): no significant difference

CC(=O)[C@H]1CC[C@H]2[C@@H]3CC[C@H]4C[C@H](O)CC[C@]4(C)[C@H]3C(=O)C[C@]12C [alphaxalone]
potentiation of the action of GABA [2]: markedly potentiate the action of GABA

CCOC(=O)c1cncn1[C@H](C)c1ccccc1 [etomidate]
time until righting reflex had disappeared ([1]; after i.p. dosing 20, 30 or 40 mg/kg, 'usually'): around 90 seconds | duration of LORR, knock-in versus wildtype mice ([1]; etomidate 20, 30 or 40 mg/kg i.p., F1,57=0.005, p=0.9498, FIG. 2): nearly significantly similar | level of slow wave sleep versus circadian matched baseline after recovery ([3]; knock-in mice, P>0.05): not statistically different | level of slow wave sleep versus circadian matched baseline after recovery ([3]; wildtype mice, up to 3 hours post recovery, ANOVA P<0.05): enhanced level of sleep | effect of β3 N289S mutation on GABA-modulatory and GABA-mimetic effects [4]: strongly suppressed | sensitivity of mutant β2 (position 289) receptors [5]: insensitive | rate of recovery of rotarod performance, wildtype versus knock-in ([6]; 15 mg/kg i.p.): recovered rotarod performance at a similar rate | rate of recovery of rotarod performance, wildtype versus knock-in ([6]; 20 mg/kg and especially 30 mg/kg i.p.): wildtype mice recovered more slowly than knock-in mice | recovery of performance in the rotarod assay, β2N289S mice compared with wildtype ([6]; anesthetic doses): dramatically faster recovery | time mice could stay on rotarod ([6]; knock-in mice, 15 mg/kg i.p.): approximately 120 seconds | time mice could stay on rotarod ([6]; wildtype mice, 15 mg/kg i.p.): approximately 120 seconds | effect of dose on rate of rotarod recovery ([6]; wildtype mice, 15, 20, 30 mg/kg i.p., F18,243=5.80, p<0.00005, FIG. 3): clear effect on the rate of recovery with increasing dose | β subunit preference of potentiation and direct activation of receptors ([2]; β2 or β3 versus β1 subunit): favours receptors containing either a β2 or a β3 subunit, versus a β1 subunit | EEG burst suppression (% of each minute EEG in suppression), wildtype versus knock-in [7]: no significant difference in the EEG pattern of both genotypes
